Source: ChEMBL document CHEMBL3414474, “Design and synthesis of piperidine derivatives as novel human heat shock protein 70 inhibitors for the treatment of drug-resistant tumors” (Eur J Med Chem, 2015)

What was measured:
[1] = Growth inhibition of human SKBR3 cells at 5 uM incubated for 72 hrs by ATP detection based luminescent assay; type: functional; details: SK-BR-3, 72 h, read-out: GI
[2] = Growth inhibition of human BT/LapR1.0 cells at 5 uM incubated for 72 hrs by ATP detection based luminescent assay; type: functional; details: read-out: GI
[3] = Growth inhibition of human SK/LapR1.0 cells at 5 uM incubated for 72 hrs by ATP detection based luminescent assay; type: functional; details: read-out: GI
[4] = test system: MDA-MB-361; assay: Growth inhibition of human MDA-MB-361 cells at 5 uM incubated for 72 hrs by ATP detection based luminescent assay; type: functional; details: MDA-MB-361, 72 h, read-out: GI
[5] = Growth inhibition of human BT474 cells at 5 uM incubated for 72 hrs by ATP detection based luminescent assay; type: functional; details: BT-474, 72 h, read-out: GI
[6] = test system: MDA-MB-453; assay: Growth inhibition of human MDA-MB-453 cells at 5 uM incubated for 72 hrs by ATP detection based luminescent assay; type: functional; details: MDA-MB-453, 72 h, read-out: GI
[7] = species on record: Homo sapiens; assay: Inhibition of HSP70 (unknown origin) at 200 uM pre-incubated for 30 mins followed by ATP addiction and measured after 3 hrs by malachite green reagent based colorimetric assay

| SMILES | inhibition of growth at 5 µM [1] [%] | inhibition of growth at 5 µM [2] [%] | inhibition of growth at 5 µM [3] [%] | inhibition of growth at 5 µM [4] [%] | inhibition of growth at 5 µM [5] [%] | inhibition of growth at 5 µM [6] [%] | inhibition [7] [%] |
| --- | --- | --- | --- | --- | --- | --- | --- |
| CSc1nccc(N2CCC(N(C)Cc3cc(Cl)ccc3Cl)CC2)n1 | 19.3 | 56.9 | 29.4 | 45.7 | 61 | 69.3 | – |
| CCOc1ncc(CN2CCC(N(C)Cc3ccccc3C#N)CC2)s1 | – | – | 7.2 | – | – | – | – |
| COc1nccc(N2CCC(N(C)Cc3ccc(C#N)cc3)CC2)n1 | 31.7 | 58.1 | 16.6 | 27.7 | 60.4 | 66.2 | – |
| COc1cc(N2CCC(N(C)Cc3ccc(F)cc3)CC2)ncn1 | 7.6 | 8.1 | 5.7 | 4.9 | 7.8 | 5 | – |
| COc1cc(N2CCC(N(C)Cc3ccccc3Cl)CC2)ncn1 | – | – | 29 | – | – | – | – |
| CS(=O)(=O)CCNCc1ccc(-c2ccc3ncnc(Nc4ccc(OCc5cccc(F)c5)c(Cl)c4)c3c2)o1 [LAPATINIB] | 79 | 18 | – | – | – | – | – |
| CCOc1ncc(CN2CCC(N(C)Cc3ccccc3Cl)CC2)s1 | – | – | 0.6 | – | – | – | – |
| CSc1nccc(N2CCC(N(C)Cc3cccc(F)c3)CC2)n1 | 32.6 | 63.9 | 35.2 | 50.4 | 67.1 | 66.2 | – |
| COc1cc(N2CCC(N(C)Cc3ccc(Cl)c(Cl)c3)CC2)ncn1 | – | 9.2 | 28 | 6.5 | 9.8 | – | – |
| CN(Cc1cccc(Cl)c1)C1CCN(Cc2cnc(Cl)s2)CC1 | – | 8.4 | 8.5 | 9.7 | 7.1 | – | – |
| CSc1ncc(CN2CCC(N(C)Cc3c(F)cccc3Cl)CC2)s1 | 9.2 | 59.9 | 4.5 | 47.2 | 49.5 | 65.3 | – |
| COc1nccc(N2CCC(N(C)Cc3ccc(C)cc3)CC2)n1 | 19.7 | 58.8 | 13.5 | 30.1 | 61.5 | 68.9 | – |
| CSc1ncc(CN2CCC(N(C)Cc3ccc(Cl)c(Cl)c3)CC2)s1 | – | – | – | – | – | – | 10.7 |
| Fc1ccc(CNC2CCN(Cc3cnc(Cl)s3)CC2)cc1 | 37.8 | 66.3 | 40.4 | 36.3 | 70 | 72.4 | – |
| Clc1ncc(CN2CCC(NCc3ccc(Cl)c(Cl)c3)CC2)s1 | – | – | – | – | 11 | – | – |
| CSc1ncc(CN2CCC(N(C)Cc3ccccc3C)CC2)s1 | – | 1.4 | 6.9 | – | – | – | – |
| CSc1ncc(CN2CCC(N(C)Cc3cccc(F)c3)CC2)s1 | – | – | 2.1 | – | – | – | – |
| COc1ccc(-c2nc(-c3cc(C(F)(F)F)cc(C(F)(F)F)c3)n(Cc3ccc(C(N)=O)cc3)c2-c2ccc(OC)cc2)cc1 | – | – | – | – | – | – | 53.1 |
| COc1nccc(N2CCC(N(C)Cc3ccccc3C#N)CC2)n1 | 86.5 | 72.7 | 74.3 | 53.3 | 71.6 | 79.5 | – |
| COc1nccc(N2CCC(N(C)Cc3cc(Cl)ccc3Cl)CC2)n1 | 24.7 | 22.7 | 11.7 | 22 | 27.5 | 50.6 | – |

| SMILES | inhibition of growth at 5 µM [1] [%] | inhibition of growth at 5 µM [2] [%] | inhibition of growth at 5 µM [3] [%] | inhibition of growth at 5 µM [4] [%] | inhibition of growth at 5 µM [5] [%] | inhibition of growth at 5 µM [6] [%] | inhibition [7] [%] |
| --- | --- | --- | --- | --- | --- | --- | --- |
| CN(Cc1c(Cl)cccc1Cl)C1CCN(Cc2cnc(Cl)s2)CC1 | 37.8 | 66.3 | 4.5 | 36.3 | 70 | 72.4 | – |
| COc1cc(N2CCC(N(C)Cc3ccc(C)cc3)CC2)ncn1 | – | 8 | 22 | – | 5 | – | – |
| COc1cc(N2CCC(N(C)Cc3ccc(C#N)cc3)CC2)ncn1 | – | – | 8.8 | – | – | – | – |
| CCOc1ncc(CN2CCC(N(C)Cc3cccc(Cl)c3)CC2)s1 | – | – | 5.2 | – | – | – | – |
| CN(Cc1cccc(F)c1)C1CCN(Cc2cnc(Cl)s2)CC1 | 4.2 | 5.7 | 1.3 | 3.2 | 2.4 | 4.4 | – |
| COc1cc(N2CCC(N(C)Cc3cc(Cl)ccc3Cl)CC2)ncn1 | 5.2 | 5.6 | 9.4 | 8.4 | 5.4 | 9.4 | – |
| Cc1ccc(CN(C)C2CCN(Cc3cnc(Cl)s3)CC2)cc1 | – | 16 | 8.4 | – | – | – | – |
| COc1cc(N2CCC(N(C)Cc3cccc(Cl)c3)CC2)ncn1 | – | 9.4 | – | – | – | – | – |
| CSc1nccc(N2CCC(N(C)Cc3ccc(C)cc3)CC2)n1 | 38.9 | 65.8 | 42 | 55.7 | 69.2 | 66.6 | – |
| Cc1ccccc1CN(C)C1CCN(Cc2cnc(Cl)s2)CC1 | 9.7 | 4 | 5.1 | 4.4 | 1.5 | 3.5 | – |
| CCOc1ncc(CN2CCC(N(C)Cc3c(Cl)cccc3Cl)CC2)s1 | – | – | 5.1 | – | – | – | – |
| Clc1cccc(CNC2CCN(Cc3cnc(Cl)s3)CC2)c1 | – | 7.2 | 4.1 | 3.2 | 3.8 | 2.4 | – |
| CN(Cc1c(F)cccc1Cl)C1CCN(Cc2cnc(Cl)s2)CC1 | 9.8 | 3.2 | 1.5 | – | – | – | – |
| CN(Cc1ccc(Cl)c(Cl)c1)C1CCN(Cc2cnc(Cl)s2)CC1 | – | – | 5.3 | – | – | – | – |
| COc1nccc(N2CCC(N(C)Cc3cccc(F)c3)CC2)n1 | 9.2 | – | 3.9 | 8.5 | 9.9 | – | – |
| CCOc1ncc(CN2CCC(N(C)Cc3cc(Cl)ccc3Cl)CC2)s1 | 9.4 | 9.6 | 5.2 | – | 5.6 | – | – |
| CSc1nccc(N2CCC(N(C)Cc3ccc(Cl)c(Cl)c3)CC2)n1 | – | – | – | – | – | 60 | – |
| CN(Cc1ccc(F)cc1)C1CCN(Cc2cnc(Cl)s2)CC1 | – | 9 | -0.1 | -1.3 | 7.1 | 11 | – |
| CCOc1ncc(CN2CCC(N(C)Cc3ccc(F)cc3)CC2)s1 | 26 | – | – | – | – | – | – |
| CN(Cc1ccccc1C#N)C1CCN(Cc2cnc(Cl)s2)CC1 | 7.3 | 4 | 4.2 | -8.5 | -4.1 | 8.2 | – |
